As to `Cc1c(CNCC2CCOCC2)n(C)c2ccc(NC(=O)c3ccc(OCC4CC4)cc3)cc12` [Example 40, 4-(cyclopropylmethoxy)-N-(1,3-dimethyl-2-{[(tetrahydro-2H-pyran-4-ylmethyl)amino]methyl}-1H-indol-5-yl)benzamide], the melting point fell in the range of 176 to 177 °C. For `Cc1c(CNCC(C)(C)C)n(C)c2ccc(NC(=O)c3ccc(OCC4CC4)cc3)cc12` [Example 41, 4-(cyclopropylmethoxy)-N-(2-{[(2,2-dimethylpropyl)amino]methyl}-1,3-dimethyl-1H-indol-5-yl)benzamide], the melting point was 169 to 170 °C. The molecule `Cc1c(CN[C@H]2CC[C@](C)(O)CC2)n(C)c2ccc(NC(=O)c3ccc(OCC4CC4)cc3)cc12` [Example 42, 4-(cyclopropylmethoxy)-N-(2-{[(trans-4-hydroxy-4-methylcyclohexyl)amino]methyl}-1,3-dimethyl-1H-indol-5-yl)benzamide] had a melting point of 191 °C. The figure for `Cc1c(NC(=O)c2ccc(OCC3CC3)cc2)ccc2[nH]c(CNCC3CCOCC3)cc12` [Example 43, 4-(cyclopropylmethoxy)-N-(4-methyl-2-{[(tetrahydro-2H-pyran-4-ylmethyl)amino]methyl}-1H-indol-5-yl)benzamide] is 181 to 182 °C; for `Cc1c(NC(=O)c2ccc(OCC3CC3)cc2)ccc2[nH]c(CNCC(C)(C)O)cc12` [Example 44, 4-(cyclopropylmethoxy)-N-(2-{[(2-hydroxy-2-methylpropyl)amino]methyl}-4-methyl-1H-indol-5-yl)benzamide] it is 186 °C. For `Cc1c(NC(=O)c2ccc(OCC3CC3)cc2)ccc2[nH]c(CNC3CCCC3)cc12` [Example 45, N-{2-[(cyclopentylamino)methyl]-4-methyl-1H-indol-5-yl}-4-(cyclopropylmethoxy)benzamide] the value was 207 to 208 °C; for `Cc1c(NC(=O)c2ccc(OC[C@@H]3CCCO3)cc2)ccc2[nH]c(CNCC3CCOCC3)cc12` [Example 47, N-(4-methyl-2-{[(tetrahydro-2H-pyran-4-ylmethyl)amino]methyl}-1H-indol-5-yl)-4-[(2S)-tetrahydrofuran-2-ylmethoxy]benzamide], 166 to 167 °C; for `Cc1c(NC(=O)c2ccc(OC[C@@H]3CCCO3)cc2)ccc2[nH]c(CNCC(C)(C)O)cc12` [Example 48, N-(2-{[(2-hydroxy-2-methylpropyl)amino]methyl}-4-methyl-1H-indol-5-yl)-4-[(2S)-tetrahydrofuran-2-ylmethoxy]benzamide], 169 to 170 °C.

Molecule `Cc1c(NC(=O)c2ccc(OC[C@@H]3CCCO3)cc2)ccc2[nH]c(CNC3CCCC3)cc12` [Example 49, N-{2-[(cyclopentylamino)methyl]-4-methyl-1H-indol-5-yl}-4-[(2S)-tetrahydrofuran-2-ylmethoxy]benzamide] showed a melting point of 191 to 192 °C. For `Cc1c(NC(=O)c2ccc(OC[C@@H]3CCCO3)cc2)ccc2c1cc(CNCC(C)(C)O)n2C` [Example 52, N-(2-{[(2-hydroxy-2-methylpropyl)amino]methyl}-1,4-dimethyl-1H-indol-5-yl)-4-[(2S)-tetrahydrofuran-2-ylmethoxy]benzamide] the value was 160 to 162 °C; for `Cc1c(NC(=O)c2ccc(OC[C@@H]3CCCO3)cc2)ccc2c1cc(CNCC(C)C)n2C` [Example 54, N-(1,4-dimethyl-2-{[(2-methylpropyl)amino]methyl}-1H-indol-5-yl)-4-[(2S)-tetrahydrofuran-2-ylmethoxy]benzamide], 162 °C; for `Cc1c(NC(=O)c2ccc(OC[C@@H]3CCCO3)cc2)ccc2c1cc(CNC1CCCC1)n2C` [Example 56, N-{2-[(cyclopentylamino)methyl]-1,4-dimethyl-1H-indol-5-yl}-4-[(2S)-tetrahydrofuran-2-ylmethoxy]benzamide], 189 °C. The figure for `CCCNCc1cc2c(C)c(NC(=O)c3ccc(OC[C@@H]4CCCO4)cc3)ccc2n1C` [Example 57, N-{1,4-dimethyl-2-[(propylamino)methyl]-1H-indol-5-yl}-4-[(2S)-tetrahydrofuran-2-ylmethoxy]benzamide] is 225 °C; for `Cc1c(NC(=O)c2ccc(OC[C@@H]3CCCO3)cc2)ccc2c1cc(CN1CCC(C)(O)CC1)n2C` [Example 58, N-{2-[(4-hydroxy-4-methylpiperidin-1-yl)methyl]-1,4-dimethyl-1H-indol-5-yl}-4-[(2S)-tetrahydrofuran-2-ylmethoxy]benzamide] it is 210 °C; for `Cc1c(NC(=O)c2ccc(OC[C@@H]3CCCO3)cc2F)ccc2c1cc(CN[C@H]1CC[C@](C)(O)CC1)n2C` [Example 59, 2-fluoro-N-(2-{[(trans-4-hydroxy-4-methylcyclohexyl)amino]methyl}-1,4-dimethyl-1H-indol-5-yl)-4-[(2S)-tetrahydrofuran-2-ylmethoxy]benzamide] it is 124 °C. For `Cc1c(NC(=O)c2ccc(OC[C@@H]3CCCO3)cc2F)ccc2c1cc(CNCC(C)C)n2C` [Example 61, N-(1,4-dimethyl-2-{[(2-methylpropyl)amino]methyl}-1H-indol-5-yl)-2-fluoro-4-[(2S)-tetrahydrofuran-2-ylmethoxy]benzamide] the value was 104 to 105 °C. `Cc1c(NC(=O)c2ccc(OC[C@@H]3CCCO3)cc2F)ccc2c1cc(CNCC1CCOCC1)n2C` [Example 62, N-(1,4-dimethyl-2-{[(tetrahydro-2H-pyran-4-ylmethyl)amino]methyl}-1H-indol-5-yl)-2-fluoro-4-[(2S)-tetrahydrofuran-2-ylmethoxy]benzamide] gave a melting point of 149 °C. In the case of `Cc1c(NC(=O)c2ccc(OCC3CC3)cc2)ccc2cc(CNCC(C)C)[nH]c12` [Example 64, 4-(cyclopropylmethoxy)-N-(7-methyl-2-{[(2-methylpropyl)amino]methyl}-1H-indol-6-yl)benzamide], the melting point fell in the range of 176 to 177 °C. Molecule `Cc1c(NC(=O)c2ccc(OCC3CC3)cc2)ccc2cc(CNCC(C)(C)C)[nH]c12` [Example 65, 4-(cyclopropylmethoxy)-N-(2-{[(2,2-dimethylpropyl)amino]methyl}-7-methyl-1H-indol-6-yl)benzamide] came in with a melting point of 199 °C.

The molecule `Cc1c(NC(=O)c2ccc(OCC3CC3)cc2)ccc2cc(CNCC3CCOCC3)[nH]c12` [Example 66, 4-(cyclopropylmethoxy)-N-(7-methyl-2-{[(tetrahydro-2H-pyran-4-ylmethyl)amino]methyl}-1H-indol-6-yl)benzamide] came in with a melting point of 167 to 168 °C. On to `Cc1c(NC(=O)c2ccc(OCC3CC3)cc2)ccc2cc(CN3CCC(C)(O)CC3)[nH]c12` [Example 68, 4-(cyclopropylmethoxy)-N-{2-[(4-hydroxy-4-methylpiperidin-1-yl)methyl]-7-methyl-1H-indol-6-yl}benzamide], for which the melting point was 195 °C.

In turn, `Cc1c(NC(=O)c2ccc(OC[C@@H]3CCCO3)cc2)ccc2cc(CNCC(C)(C)C)[nH]c12` [Example 69, N-(2-{[(2,2-dimethylpropyl)amino]methyl}-7-methyl-1H-indol-6-yl)-4-[(2S)-tetrahydrofuran-2-ylmethoxy]benzamide] had a melting point of 168 °C. With `Cc1c(NC(=O)c2ccc(OC[C@@H]3CCCO3)cc2)ccc2cc(CNCC(C)C)[nH]c12` [Example 72, N-(7-methyl-2-{[(2-methylpropyl)amino]methyl}-1H-indol-6-yl)-4-[(2S)-tetrahydrofuran-2-ylmethoxy]benzamide], the melting point was 159 °C. For `Cc1c(NC(=O)c2ccc(OC[C@@H]3CCCO3)cc2)ccc2cc(CNC3CCCC3)[nH]c12` [Example 73, N-{2-[(cyclopentylamino)methyl]-7-methyl-1H-indol-6-yl}-4-[(2S)-tetrahydrofuran-2-ylmethoxy]benzamide], the melting point was in the range of 159 to 163 °C.

Molecule `Cc1c(NC(=O)c2ccc(OC[C@@H]3CCCO3)cc2F)ccc2cc(CNCC(C)(C)O)[nH]c12` [Example 76, 2-fluoro-N-(2-{[(2-hydroxy-2-methylpropyl)amino]methyl}-7-methyl-1H-indol-6-yl)-4-[(2S)-tetrahydrofuran-2-ylmethoxy]benzamide] gave a melting point of 148 to 149 °C.

As to `Cc1c(NC(=O)c2ccc(OC[C@@H]3CCCO3)cc2F)ccc2cc(CN[C@H]3CC[C@](C)(O)CC3)[nH]c12` [Example 77, 2-fluoro-N-(2-{[(trans-4-hydroxy-4-methylcyclohexyl)amino]methyl}-7-methyl-1H-indol-6-yl)-4-[(2S)-tetrahydrofuran-2-ylmethoxy]benzamide], the melting point was 152 to 153 °C.

For the molecule `Cc1c(NC(=O)c2ccc(OCC3CC3)cc2)ccc2cc(CN[C@H]3CC[C@](C)(O)CC3)n(C)c12` [Example 79, 4-(cyclopropylmethoxy)-N-(2-{[(trans-4-hydroxy-4-methylcyclohexyl)amino]methyl}-1,7-dimethyl-1H-indol-6-yl)benzamide], the melting point was 167 °C. The figure for `Cc1c(NC(=O)c2ccc(OCC3CC3)cc2)ccc2cc(CN3CCC(C)(O)CC3)n(C)c12` [Example 80, 4-(cyclopropylmethoxy)-N-{2-[(4-hydroxy-4-methylpiperidin-1-yl)methyl]-1,7-dimethyl-1H-indol-6-yl}benzamide] is 152 to 155 °C; for `Cc1c(NC(=O)c2ccc(OC[C@@H]3CCCO3)cc2)ccc2cc(CNCC(C)(C)C)n(C)c12` [Example 81, N-(2-{[(2,2-dimethylpropyl)amino]methyl}-1,7-dimethyl-1H-indol-6-yl)-4-[(2S)-tetrahydrofuran-2-ylmethoxy]benzamide] it is 201 °C; for `Cc1c(NC(=O)c2ccc(OC[C@@H]3CCCO3)cc2)ccc2cc(CNCC(C)(C)O)n(C)c12` [Example 82, N-(2-{[(2-hydroxy-2-methylpropyl)amino]methyl}-1,7-dimethyl-1H-indol-6-yl)-4-[(2S)-tetrahydrofuran-2-ylmethoxy]benzamide] it is 197 to 200 °C.

The molecule `Cc1c(NC(=O)c2ccc(OC[C@@H]3CCCO3)cc2)ccc2cc(CNCC(C)C)n(C)c12` [Example 85, N-(1,7-dimethyl-2-{[(2-methylpropyl)amino]methyl}-1H-indol-6-yl)-4-[(2S)-tetrahydrofuran-2-ylmethoxy]benzamide] registered a melting point of 183 °C.
